{"source": "patent US5173423A", "about": "“Process for breeding a glabrous variety of rice crop and a glabrous plant” (Sumitomo Chemical Company Limited, priority 1990, dated 1992)", "origin": "cited, not measured here", "test_system": "Ginbozu", "details": "mutation breeding; induced variation: chlorosis; variety Ginbozu"}
{"smiles": "O=c1[nH]cc(Br)c(=O)[nH]1", "note": "[5-BU, 5-bromouracil]", "values": [{"measurement": "Frequency of occurrence of variants", "value": 1.0, "unit": "%"}]}
{"smiles": "Nc1ncc2[nH]cnc2n1", "note": "[2-AP, 2-aminopurine]", "values": [{"measurement": "Frequency of occurrence of variants", "value": 0.57, "unit": "%"}]}
